Source: patent US5658913A, “Chemopreventive compounds and a preparation method and use thereof” (Kim; Nak Doo, priority 1993, dated 1997)

Experiments:
Assay type in all cases: in vivo, Sprague-Dawley rat
[1] = system: N-nitrosodimethylamine demethylase; assay: N-Nitrosodimethylamine demethylase activity of hepatic microsomes (Experimental Example 1(2-3)); details: 200 mg/kg, 1 to 3 days, time-dependent
Description: (§1) Six groups of Sprague-Dawley rat weighing 190±30 g were administered with pyrazine(Groups 1 to 3) or the compound prepared in Example 1-1(Groups 4 to 6) in a dose of 200 mg/kg for 1, 2 or 3 days. After the hepatic microsomes were separated by following the same procedure as in the above (1), activity of p-nitrophenol hydrolase was measured according to the method of Koop(Dennis R. Koop, Hydroxylation p-nitrophenol by rabbit ethanol inducible cytochrome P-450 isozyme 3a, Molecular Pharmacol. 29, 399-404(1986)).
The same procedure as in the above (2-1) was carried out to measure the activity of N-nitrosodimethyl demethylase. The activity of N-nitrosodimethyl demethylase was measured according to the method of Kaul and Novak(Kaul, L. L. and Novak, R. F., Induction of rabbit hepatic microsomal cytochrome P-450 by imidazole; enhanced metabolic activity and altered substrate specificity, Arch. Biochem. Biophys., 235, 470-481(1984)).
Thus, 10 mM N-Nitrosodimethylamine and 0.6 ml of 0.1M potassium phosphate buffer(pH 7.4) were added to 1 mg of microsomes, and 1 mM NADPH was added to make the total volume of 1 ml. After the mixture was reacted at 37° C. for 30 minutes, 20% trichloroacetic acid was added to stop the reaction and the reaction mixture was centrifuged. […] The mixture was allowed to stand at 37° C. for 45 minutes to develop a color and the absorbance at 412 nm was measured. […]

[2] = system: microsomal epoxide hydrolase (mEH); assay: Western blot analysis for microsomal epoxide hydrolase (Experimental Example 3(1)); details: 200 mg/kg i.p. for 1, 2 or 3 days; FIG. 6
Description: The hepatic microsomes were separated and subjected to SDS-polyacrylamide gel electrophoresis by following the same procedure as in the above Experimental Example 1(1). Thereafter, western blot analysis for microsomal epoxide hydrolase(mEH) was carried out as follows:
Streptavidine-horseradish peroxidase and 4-chloro-1-naphtol were added to the reaction mixture to develop a color.

[3] = system: aniline hydroxylase; assay: Aniline hydroxylase activity of hepatic microsomes (Experimental Example 1(2-2)); details: 200 mg/kg
Description: as §1
The same procedure as in the above (2-1) was carried out to measure the activity of aniline hydroxylase. The activity of aniline hydroxylase was measured according to the method of Mieyal(John J. Mieyal, Acceleration of the autooxidation of human oxyhemoglobin by aniline and its relation to hemoglobin-catalyzed aniline hydroxylation, J. Biol. Chem. 251, 3442-3446(1976)).
Thus, 1 mg of microsomes and 5 mM aniline were added to 0.6 ml of 0.1M potassium phosphate buffer(pH 6.8) to make the total volume of 0.9 ml. 1 mM NADPH was added to make the total volume of 1.0 ml and the resulting mixture was reacted at 37° C. After 10 minutes, 20% trichloroacetic acid was added to stop the reaction and the reaction mixture was centrifuged. To 1 ml of supernatant were added 0.1 ml of 5% phenol and 0.1 ml of 2.5N sodium carbonate, dissolved in 0.1N NaOH. The mixture was allowed to stand for 30 minutes to develop a color and the absorbance at 630 nm was measured at once. The enzyme activity was expressed in terms of mole concentration of 4-aminophenol, the product of reaction for 1 minute.

[4] = system: p-nitrophenol hydroxylase; assay: p-Nitrophenol hydroxylase activity of hepatic microsomes (Experimental Example 1(2-1)); details: 200 mg/kg
Description: In order to examine the effect of the compound of the present invention on the activity of the enzymes involved in phase I reaction, the experiments were carried out as follows:
as §1
Thus, 1 mg of microsomes and 1mM p-nitrophenol were added to 0.6 ml of 0.1M potassium phosphate buffer(pH 6.8) to make the total volume of 0.9 ml. The resulting mixture was preliminarily reacted in a 37° C. incubator for 2 minutes and started to react while adding 1 mM NADPH(0.1 ml). After 3 minutes, 0.5 ml of 0.6N perchloric acid was added to develop a color and the absorbance at 546 nm was measured at once. The enzyme activity was expressed in terms of mole concentration of 4-nitrocatechol, the product of reaction for 1 minute.

## C=CCSc1cnccn1 [Example 1-1, 2-(2-propenylthio)pyrazine]
[1]
  decrease in activity of N-nitrosodimethylamine demethylase compared to pyrazine groups: 49-73%
[2]
  expression of mEH compared to control or pyrazine groups: significant increase in the expression of mEH
[3]; 1 day
  decrease in activity of aniline hydroxylase compared to pyrazine groups: 57%
[3]; 2 days
  decrease in activity of aniline hydroxylase compared to pyrazine groups: 80%
[3]; 3 days
  decrease in activity of aniline hydroxylase compared to pyrazine groups: 88%
[4]; 1 day
  decrease in activity of p-nitrophenol hydrolase compared to pyrazine groups: 64%
[4]; 2 days
  decrease in activity of p-nitrophenol hydrolase compared to pyrazine groups: 73%
[4]; 3 days
  decrease in activity of p-nitrophenol hydrolase compared to pyrazine groups: 82%
